Entries after “also recorded” stand apart in the source; their conditions may differ. One block for each compound: values may come before it.
What was measured:
hiPSC-CMs [1] = assay: Cell viability of hiPSC-CMs treated with carfilzomib with or without 4H10 (CellTiter-Blue); type: cell-based, human; conditions: for mitigation of carfilzomib-induced cytotoxicity: co-treatment of hiPSC-CMs with carfilzomib
Method: Cell viability was analyzed after IMR-90 hiPSC-CMs were treated with carfilzomib (CFZ) with or without 4H10 for 24 hours. (n=5 cultures).
(§1) A human induced pluripotent cell line (hiPSC line IMR90™, WiCell Research Institute) was fed daily on Matrigel™-coated plates with a defined medium for hiPSC culture, mTeSR1 medium. For CM differentiation, hiPSCs were induced using a growth factor-driven differentiation protocol as reported in Jha et al. Efficient differentiation of cardiomyocytes from human pluripotent stem cells with growth factors. Methods Mol Biol, 2015, 1299, 115-131. On the day of induction (day 0), medium was replaced with RPMI 1640 medium supplemented with 2% B27 minus insulin (a cell culture supplement) containing 100 ng/ml activin A. After induction for 24 h, the medium was replaced with fresh RPMI supplemented with 2% B27 minus insulin containing 10 ng/ml BMP4. From day 4 of differentiation, the medium was replaced with RPMI supplemented with 2% B27. On day 5, the cells were dissociated and reseeded into AggreWell400™ plates to acquire cardiac spheres. After 24 h, the cardiac spheres formed were collected and transferred to low-adhesion dishes for suspension culture. The medium was changed every other day. Cardiac spheres typically started beating spontaneously by day 7 to 9.
(§2) Cardiomyocytes derived from human pluripotent stem cells (hiPSC-CMs) were provide a new platform for the studies of cancer drug-induced side effects and therapies. Using these cells, lead molecules were identified indicating protective properties on cardiomyocytes from the toxic effect of chemotherapy agents and ethanol (EtOH). […] Oxidative stress is a common molecular mechanism for cardiotoxicity induced by chemotherapy including proteosome inhibitors.
Consistently, treatment of hiPSC-CMs induced cell death and cytotoxicity. To examine if 4H10 could protect cardiomyocytes from carfilzomib-induced cytotoxicity, hiPSC-CMs were treated with carfilzomib at 5 μM alone or together with 4H10 at various concentrations for 24 h and then examined cell viability using the CellTiter-Blue Cell Viability Assay. Cells treated with DMSO (vehicle) were used as a control.

hiPSC-CMs [2] = assay: MitoTracker Red staining (mitochondrial content and activity) of carfilzomib-treated hiPSC-CMs, high-content imaging; type: cell-based, human; conditions: 24 h
Method: MitoTracker™ Red staining was performed in IMR-90 hiPSC-CMs treated with CFZ with or without 4H10 for 24 hours.
as §1
Mitochondria play a crucial role in energy production, cellular metabolism, and the regulation of cell death. Experiments indicate carfilzomib induces mitochondrial dysfunction in hiPSC-CMs. To assess the potential mitigating effects of 4H10 on carfilzomib-induced mitochondrial dysfunction, hiPSC-CMs were treated with carfilzomib alone or co-treated with 4H10 at various concentrations. Mitochondria were then visualized using MitoTracker™ Red dyes, which can accumulate in active mitochondria and allow for the measurement of mitochondrial content and activity in live cells.

hiPSC-CMs [3] = assay: Intracellular oxidative stress (ROS) of carfilzomib-treated hiPSC-CMs, DCFDA/H2DCFDA assay; type: cell-based, human; conditions: 24 h
Method: The quantification of oxidative stress was performed using DCFDA staining of SCVI hiPSC-CMs treated with Cfz with or without 4H10 for 24 hours.
The induction of oxidative stress is a crucial mechanism through which proteasome inhibitors induce apoptosis. To investigate if 4H10 could alleviate carfilzomib-induced increase of oxidative stress in cardiomyocytes, hiPSC-CMs were exposed to carfilzomib at 5 μM alone or together with 4H10 at various concentrations for 24 h. The production of cellular reactive oxygen species (ROS) was then measured using DCFDA/H2DCFDA assay kit.

proteasome [4] = assay: Proteasome activity in hiPSC-CMs after carfilzomib with or without 4H10; type: cell-based, human; conditions: 4H10 co-treatment with carfilzomib, 24 h, IMR-90 hiPSC-CMs
Method: (§3) (top) Proteasome activity of IMR-90 hiPSC-CMs was measured after the cells were treated with CFZ with or without 4H10 for 24 hours. (bottom, right, left) Proteasome activity and cell viability of RPMI8226 cells (cancer cells) were measured after the cells were treated with CFZ with or without 4H10 for 24 hours.
The proteasome, responsible for the regulated degradation of proteins, is a key cellular component targeted by carfilzomib as part of its mechanism of action in cancer therapy. Therefore, in addition to validation of cardioprotective effects of 4H10 on cell viability and mitochondrial function, it is crucial to examine if 4H10 compromises the proteasome inhibition efficacy of carfilzomib.

proteasome [5] = assay: Proteasome activity in RPMI8226 cells after carfilzomib with or without 4H10; type: cell-based; conditions: 4H10 with carfilzomib, 24 h
Method: as §3
(§4) Experiments were designed to determine the effects of carfilzomib and 4H10 on proteasome activity and cell viability of RPMI8226 cell line, which has been investigated for the efficacy tests of carfilzomib in […].

RPMI8226 cells = assay: Cell viability of RPMI8226 cells after carfilzomib with or without 4H10; type: cell-based; conditions: 4H10 co-treatment with carfilzomib, 24 h
Method: as §3, §4

hiPSC-CMs [6] = assay: Cell viability of hiPSC-CMs treated with doxorubicin with or without 4H10 (CellTiter-Blue); type: cell-based, human
Text: Doxorubicin is a widely used chemotherapy drug for various cancers, including breast cancer, leukemia, and lymphoma. However, one significant side effect associated with doxorubicin use is cardiotoxicity. It is contemplated that 4H10 may target common mechanisms of cardiotoxicity and have a broad impact of cardioprotection since it protects hiPSC-CMs from toxicity induced by both ethanol and carfilzomib.

hiPSC-CMs [7] = assay: Cell viability assay and cell counting (high-content imaging) of EtOH-challenged hiPSC-CMs; type: cell-based, human
Text: (§5) EtOH-induced cardiotoxicity shares common disease phenotypes and possibly similar underlying mechanisms with drug-induced cardiotoxicity.

SCVI-273 hiPSC-CMs = assay: Cell viability of EtOH-treated hiPSC-CMs derived from SCVI-273 hiPSCs; type: cell-based, human; conditions: another cell line SCVI-273
Text: as §5

hiPSC-CMs [8] = assay: Oxidative stress in EtOH-treated hiPSC-CMs; type: cell-based, human
Text: as §5

hiPSC-CMs [9] = assay: Cardiac troponin T expression and mitochondrial content in EtOH-treated hiPSC-CMs; type: cell-based, human
Text: as §5

hiPSC-CMs [10] = assay: Mitochondrial oxidative stress caused by bortezomib (PS-341); type: cell-based, human; conditions: with bortezomib
Text: as §2

patients = conditions: cancer patients on therapy; cited from earlier work
hiPSC-CMs [11] = assay: Chronic ethanol exposure of hiPSC-CMs: cellular properties, functions and global proteomic profiling; type: cell-based, human
Method: Cardiomyocytes derived from human pluripotent stem cells (hiPSC-CMs) were treated with clinically relevant doses of ethanol for various durations up to 5 weeks. The treated cells were characterized for their cellular properties and functions, and global proteomic profiling was conducted.

hiPSC-CMs [12] = conditions: Liu et al., 2021; cited from earlier work
α1-AR [13] = assay: Staining of hiPSC-CMs with BODIPY-FL-prazosin for α1-AR expression; type: cell-based, human; conditions: fluorescent staining, α1-AR expression and localization
Text: The expression of α1-AR was detected in hiPSC-CMs based on the BODIPY FL prazosin signals.

α1-AR [14] = conditions: literature knowledge; cited from earlier work
hiPSC-CMs [15] = assay: Effects of chemotherapeutic agents on function of hiPSC-CMs; type: cell-based, human; conditions: melphalan treatment
[16] = clinically relevant doses of ethanol, up to 5 weeks

Compound: CNCC(=O)c1ccc(O)c(O)c1 [4H10]
maximal cytoprotective effect against carfilzomib (hiPSC-CMs [1]; 4H10 at 25 μM and 50 μM + carfilzomib 5 μM, 24 h): maximal cytoprotective effect for the cells to reach viability levels similar to those from DMSO-treated cells
cell viability after co-treatment with carfilzomib and 4H10 (hiPSC-CMs [1]; carfilzomib 5 μM + 4H10 at 5 μM or higher, 24 h, compared (so in the source) with DMSO-treated cells): significantly increased cell viability
mitigation of carfilzomib-induced cytotoxicity (hiPSC-CMs [1]): protection of hiPSC-CMs from carfilzomib-induced cardiotoxicity; also recorded: reduced cytotoxicity was observed; also recorded: mitigated carfilzomib-induced cytotoxicity in a dose-dependent manner
mitigation of carfilzomib-induced cytotoxicity (hiPSC-CMs [1]; listed as adrenalone HCl): protected hiPSC-CMs from cardiotoxicity induced by carfilzomib
MitoTracker Red fluorescence intensity on co-treatment (hiPSC-CMs [2]; 4H10 at 10 μM or higher + carfilzomib, dose-dependent): increase in fluorescence intensity
mitigation of carfilzomib-induced mitochondrial defects (hiPSC-CMs [2]; co-treatment with carfilzomib): mitigates carfilzomib-induced mitochondrial defects; also recorded: mitigated carfilzomib-induced mitochondrial defects in hiPSC-CMs in a dose-dependent manner
DCFDA fluorescence intensity on co-treatment (hiPSC-CMs [3]; 4H10 at 5 μM or higher + carfilzomib 5 μM, dose-dependent): reduction of DCFDA fluorescence intensity
mitigation of carfilzomib-induced oxidative stress (hiPSC-CMs [3]; co-treatment with carfilzomib, SCVI hiPSC-CMs): mitigates carfilzomib-induced intracellular oxidative stress; also recorded: mitigated carfilzomib-induced oxidative stress in hiPSC-CMs in a dose-dependent manner
effect on proteasome inhibition activity of carfilzomib (proteasome [4]): does not interfere with the proteasome inhibition activity of carfilzomib; also recorded: did not interfere with the proteasome inhibition activity of carfilzomib
change of proteasome activity in RPMI8226 cells by 4H10 (proteasome [5]): did not elicit any changes
change of carfilzomib-reduced RPMI8226 viability by 4H10 co-treatment (RPMI8226 cells): does not interfere with the proteasome inhibition activity of carfilzomib and the ability of carfilzomib to kill cancer cells; also recorded: not significantly changed
cell viability after co-treatment with doxorubicin and 4H10 (hiPSC-CMs [6]; 4H10 25 μM + doxorubicin 1, 2, 5 or 10 μM, 24 h, compared with doxorubicin): increased cell viability
mitigation of doxorubicin-induced cytotoxicity (hiPSC-CMs [6]; 4H10 co-treatment with doxorubicin): protects hiPSC-CMs from doxorubicin-induced cytotoxicity; also recorded: mitigated doxorubicin-induced cytotoxicity
protection from alcohol-induced cytotoxicity (hiPSC-CMs [7]; hiPSC-CMs): can protect hiPSC-CMs from alcohol- and carfilzomib-induced cytotoxicity
cell survival following EtOH challenge (hiPSC-CMs [7]; hiPSC-CMs challenged with EtOH, cell viability assay and cell counting): increased cell survival dose-dependently
cell number after EtOH treatment (hiPSC-CMs [7]; high-content imaging): attenuated the reduced cell number induced by EtOH treatment
cell viability, EtOH-treated SCVI-273 hiPSC-CMs (SCVI-273 hiPSC-CMs): increased cell viability
oxidative stress in EtOH-treated hiPSC-CMs (hiPSC-CMs [8]): reduced oxidative stress
defects in expression of cardiac troponin T (hiPSC-CMs [9]): reduced
defects in mitochondrial content (hiPSC-CMs [9]): reduced

Compound: CNCC(=O)c1ccc(O)c(O)c1 [Adrenalone, 1-(3,4-dihydroxyphenyl)-2-(methylamino) ethan-1-one]
mitochondrial oxidative stress caused by bortezomib (PS-341) (hiPSC-CMs [10]): reduced mitochondrial oxidative stress

Compound: COc1cccc2c1C(=O)c1c(O)c3c(c(O)c1C2=O)C[C@@](O)(C(=O)CO)C[C@@H]3O[C@H]1C[C@H](N)[C@H](O)[C@H](C)O1 [doxorubicin]
cell viability after doxorubicin (hiPSC-CMs [6]; doxorubicin 1-10 μM alone, 24 h, compared with untreated cells): significant decrease in cell viability
cardiac adverse events in patients (patients): cardiotoxicity

Ca^2+ handling (hiPSC-CMs [11]; [16]): deranged Ca^2+ handling
action potential (hiPSC-CMs [11]; [16]): abnormal action potential
contractility (hiPSC-CMs [11]; [16]): altered contractility
structure development (hiPSC-CMs [11]; [16]): suppressed structure development
Compound: CCO [ethanol]
cell death (hiPSC-CMs [11]; [16]): Increased cell death
oxidative stress (hiPSC-CMs [11]; [16]): Increased cell death, oxidative stress
global proteomic profiling: dysregulated proteins (hiPSC-CMs [11]; ethanol, up to 5 weeks): Many dysregulated proteins identified by global proteomic profiling were involved in apoptosis, heart contraction, and extracellular collagen matrix
signaling pathways affected (hiPSC-CMs [11]; long-term ethanol exposure): several signaling pathways including the Wnt and TGFβ signaling pathways were affected
changes in hiPSC-CMs on chronic ethanol exposure (hiPSC-CMs [12]): induces deleterious changes in cardiomyocytes

Compound: BODIPY-FL-prazosin
BODIPY FL prazosin signals in hiPSC-CMs (α1-AR [13]): co-localized with nuclei
α1-AR affinity / antagonism (α1-AR [14]): high-affinity antagonist

Compound: melphalan
cardiotoxicity in hiPSC-CMs: cardiac function (hiPSC-CMs [15]): abnormal cardiac function
cardiotoxicity in hiPSC-CMs: oxidative stress (hiPSC-CMs [15]): induces cardiotoxicity, including oxidative stress
cardiac adverse events in patients (patients): clinically observed arrhythmias
